Assay results from article PMC3608462 (Biochemistry, 2011).
Residues, ends and D or L forms follow the SMILES beside them.

Assays:
[1] = molecular target: CPAF (Chlamydia trachomatis serovar D, UniProt O84866); format: biochemical
[2] = tested on: C. trachomatis LGV-L2 434-infected HeLa cells; settings: C. trachomatis LGV-L2 434-infected HeLa cells treated with lactacystin; cited from earlier work

Chain of CPAF (O84866 276-601): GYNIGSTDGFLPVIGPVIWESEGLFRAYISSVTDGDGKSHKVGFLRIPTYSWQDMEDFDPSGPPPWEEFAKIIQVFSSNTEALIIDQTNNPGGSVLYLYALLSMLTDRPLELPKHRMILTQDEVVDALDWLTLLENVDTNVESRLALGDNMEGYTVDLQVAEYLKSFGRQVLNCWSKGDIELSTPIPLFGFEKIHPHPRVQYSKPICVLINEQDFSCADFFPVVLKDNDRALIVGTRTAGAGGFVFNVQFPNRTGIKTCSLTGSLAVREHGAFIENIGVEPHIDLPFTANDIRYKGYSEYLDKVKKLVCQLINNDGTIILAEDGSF
Chain of CPAF (O84866 1-234): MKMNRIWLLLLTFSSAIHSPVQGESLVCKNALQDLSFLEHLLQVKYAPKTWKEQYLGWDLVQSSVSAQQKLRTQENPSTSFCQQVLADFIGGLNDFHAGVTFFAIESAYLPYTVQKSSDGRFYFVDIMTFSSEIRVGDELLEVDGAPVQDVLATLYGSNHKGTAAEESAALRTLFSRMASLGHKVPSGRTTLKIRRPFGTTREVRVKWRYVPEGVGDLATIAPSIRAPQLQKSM

## CSCC[C@H](NC(=O)[C@@H]1CCCN1C(=O)[C@H](CO)NC(=O)[C@H](Cc1ccc(O)cc1)NC(=O)[C@H](Cc1ccccc1)NC(=O)[C@H](CC(C)C)NC(=O)[C@@H](N)CO)C(=O)N[C@H](C(=O)N1CCC[C@H]1C(=O)N[C@@H](Cc1c[nH]cn1)C(=O)N[C@@H](Cc1ccccc1)C(=O)N[C@@H](Cc1c[nH]c2ccccc12)C(=O)N[C@@H](C)C(=O)N[C@@H](CCC(=O)O)C(=O)N[C@@H](CC(C)C)C(=O)N[C@@H](CCCNC(=N)N)C(=O)N[C@@H](CC(N)=O)C(=O)N[C@@H](Cc1c[nH]cn1)C(=O)N[C@@H](Cc1ccc(O)cc1)C(=O)N[C@@H](C)C(=O)N[C@H](C(=O)N[C@@H](CO)C(=O)NCC(=O)N[C@@H](CC(C)C)C(=O)N[C@@H](CCCCN)C(N)=O)[C@@H](C)O)C(C)C [peptide 3] (H-SLFYSPMVPHFWAELRNHYATSGLK-NH2)
[1]; ratio of CPAF IC50 values
  potency relative to lactacystin (fold more potent): 6 fold

## CSCC[C@H](NC(=O)[C@@H]1CCCN1C(=O)[C@H](CO)NC(=O)[C@H](Cc1ccc(O)cc1)NC(=O)[C@H](Cc1ccccc1)NC(=O)[C@H](CC(C)C)NC(=O)[C@@H](N)CO)C(=O)N[C@H](C(=O)N1CCC[C@H]1C(=O)N[C@@H](Cc1c[nH]cn1)C(=O)N[C@@H](Cc1ccccc1)C(=O)N[C@@H](Cc1c[nH]c2ccccc12)C(=O)N[C@@H](C)C(=O)N[C@@H](CCC(=O)O)C(=O)N[C@@H](CC(C)C)C(=O)N[C@@H](CCCNC(=N)N)C(=O)N[C@@H](CC(N)=O)C(=O)N[C@@H](Cc1c[nH]cn1)C(=O)N[C@@H](Cc1ccc(O)cc1)C(=O)N[C@@H](C)C(=O)N[C@H](C(=O)N[C@@H](CO)C(=O)NCC(=O)N[C@@H](CC(C)C)C(=O)N[C@@H](CCCCN)C(=O)N[C@@H](CCCNC(=N)N)C(=O)N[C@@H](CCCNC(=N)N)C(=O)N[C@@H](CCCNC(=N)N)C(=O)N[C@@H](CCCNC(=N)N)C(=O)N[C@@H](CCCNC(=N)N)C(=O)N[C@@H](CCCNC(=N)N)C(=O)N[C@@H](CCCNC(=N)N)C(=O)N[C@@H](CCCNC(=N)N)C(=O)N[C@@H](CCCNC(=N)N)C(N)=O)[C@@H](C)O)C(C)C [peptide 4] (H-SLFYSPMVPHFWAELRNHYATSGLKRRRRRRRRR-NH2)
[1]; ratio of CPAF IC50 values
  potency relative to inhibitor 3 (fold better): ~30 fold
  potency relative to lactacystin (fold more potent): ~200 fold

## CC(=O)N[C@@H](CSC(=O)[C@]1([C@@H](O)C(C)C)NC(=O)[C@H](C)[C@@H]1O)C(=O)O [lactacystin]
[2]
  effect on vimentin in infected HeLa cells: fiber oligermerization of vimentin

## H-NFALSHFRLPLSTYKEMPYVSHWAGRRRRRRRRR-NH2 [peptide 5]
[1]; in vitro
  CPAF inhibitory activity in vitro: no CPAF inhibitory activity
